# PubChem BioAssay (NCI)
#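 The concentration for 50% growth inhibition is given as GI50. At the TGI there is no net growth.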
# Columns and labels:
# Experiment in all cases: NCI-60 cell line screen, 384-well format
# MDA-MB-435 melanoma = system: MDA-MB-435 melanoma
# HCC-2998 colon = system: HCC-2998 colon
# IGROV1 ovarian = system: IGROV1 ovarian
# KM12 colon = system: KM12 colon
# NCI-H322M lung = system: NCI-H322M lung
# ACHN renal = system: ACHN renal
# SF-539 CNS = system: SF-539 CNS
# DU-145 prostate = system: DU-145 prostate
# MDA-MB-231 breast = system: MDA-MB-231 breast
# HCT-116 colon = system: HCT-116 colon
# SF-295 CNS = system: SF-295 CNS
# U251 glioblastoma = system: U251 glioblastoma
# HT29 colon = system: HT29 colon
# NCI/ADR-RES ovarian = system: NCI/ADR-RES ovarian
# OVCAR-3 ovarian = system: OVCAR-3 ovarian
# SNB-19 CNS = system: SNB-19 CNS
# HCT-15 colon = system: HCT-15 colon
# SK-OV-3 ovarian = system: SK-OV-3 ovarian
# LOX IMVI melanoma = system: LOX IMVI melanoma
# MCF7 breast = system: MCF7 breast
# M14 melanoma = system: M14 melanoma
# NCI-H460 NSCLC = system: NCI-H460 NSCLC
# COLO 205 colon = system: COLO 205 colon
# SR leukemia = system: SR leukemia
# OVCAR-4 ovarian = system: OVCAR-4 ovarian
# MDA-MB-468 breast = system: MDA-MB-468 breast
# UO-31 renal = system: UO-31 renal
# HOP-92 NSCLC = system: HOP-92 NSCLC
compound,measurement,setting,value
Cc1c2c(nn1C)CSCc1cc(n(C)n1)CSc1cc(c3ccccc3c1)OCCCc1c(C(=O)O)n(C)c3c-2c(Cl)ccc13,GI50,MDA-MB-435 melanoma,1.01 µM
same,TGI,MDA-MB-435 melanoma,13.2 µM
same,GI50,HCC-2998 colon,1.11 µM
same,TGI,HCC-2998 colon,3.94 µM
same,GI50,IGROV1 ovarian,2.85 µM
same,TGI,IGROV1 ovarian,10.9 µM
same,GI50,KM12 colon,2.13 µM
same,TGI,KM12 colon,5.14 µM
same,GI50,NCI-H322M lung,8.43 µM
same,TGI,NCI-H322M lung,20.8 µM
same,GI50,ACHN renal,4.09 µM
same,TGI,ACHN renal,15.9 µM
same,GI50,SF-539 CNS,1.74 µM
same,TGI,SF-539 CNS,4.35 µM
same,GI50,DU-145 prostate,2.98 µM
same,TGI,DU-145 prostate,8.97 µM
same,GI50,MDA-MB-231 breast,6.22 µM
same,TGI,MDA-MB-231 breast,18.5 µM
same,GI50,HCT-116 colon,2.41 µM
same,TGI,HCT-116 colon,6.04 µM
same,GI50,SF-295 CNS,1.85 µM
same,TGI,SF-295 CNS,4.23 µM
same,GI50,U251 glioblastoma,2.35 µM
same,TGI,U251 glioblastoma,4.92 µM
same,GI50,HT29 colon,3.49 µM
same,TGI,HT29 colon,11.3 µM
same,GI50,NCI/ADR-RES ovarian,12 µM
same,TGI,NCI/ADR-RES ovarian,24.4 µM
same,GI50,OVCAR-3 ovarian,1.76 µM
same,TGI,OVCAR-3 ovarian,3.69 µM
same,GI50,SNB-19 CNS,3.5 µM
same,TGI,SNB-19 CNS,12 µM
same,GI50,HCT-15 colon,4.49 µM
same,TGI,HCT-15 colon,15.5 µM
same,GI50,SK-OV-3 ovarian,6.18 µM
same,TGI,SK-OV-3 ovarian,19.2 µM
same,GI50,LOX IMVI melanoma,3.01 µM
same,TGI,LOX IMVI melanoma,10.1 µM
same,GI50,MCF7 breast,0.336 µM
same,TGI,MCF7 breast,2.75 µM
same,GI50,M14 melanoma,2.8 µM
same,TGI,M14 melanoma,8.79 µM
same,GI50,NCI-H460 NSCLC,1.96 µM
same,TGI,NCI-H460 NSCLC,4.68 µM
same,GI50,COLO 205 colon,5.21 µM
same,TGI,COLO 205 colon,17.3 µM
same,GI50,SR leukemia,0.0157 µM
same,TGI,SR leukemia,0.0329 µM
same,GI50,OVCAR-4 ovarian,0.459 µM
same,TGI,OVCAR-4 ovarian,3.54 µM
same,GI50,MDA-MB-468 breast,0.126 µM
same,TGI,MDA-MB-468 breast,0.581 µM
same,GI50,UO-31 renal,3.82 µM
same,TGI,UO-31 renal,14.6 µM
same,GI50,HOP-92 NSCLC,2.08 µM
same,TGI,HOP-92 NSCLC,5.64 µM
